Data published in patent US20170304336A1, “COMBINATION” (priority 2014, published 2017).

Key:
Assay type in all cases: in vivo, male rats of Wistar line
[1] = tested on: experimental rat hypercholesterolemia model; assay: Lipid spectrum of blood in experimental rat hypercholesterolemia model
Procedure: The animals used were male rats of Wistar line. […] The proposed model using rats as the experimental animals is a reproducible standard model for evaluation of hypocholesterolemic effect.
(§1) Evaluation of hypocholesterolemic efficacy and safety of pharmaceutical combination was performed in vivo in experimental rat hypercholesterolemia model.
(§2) For 90 days the studied animals received hypercholesterol diet for pathology induction. The diet included Cholesterol+Cholic acid+Overheated fats (deep fat).
For 90 days the animals received the said ration ad libitum (30 g feed per animal). Development of hypercholesterolemia in animals was evaluated based on changes in lipid spectrum parameters on Day 30 of the study.
(§3) Drugs were introduced intragastrically with an esophageal bougie daily on Day 31-90 of the study at the same time of day.
Biochemical parameters and activity of blood serum enzymes (total cholesterol (CHS), LDL-CHS, HDL-CHS, triglycerides.
1.0-1.84 ml blood samples for the study of biochemical parameters were taken from tail vein of rats. Blood samples were taken from the animals after 14-15-hour's fasting at same time of day (9.00-11.00). For biochemical parameters tests a Biochemical Analyzer A-25 (Biosystems, Spain) was used. […]

[2] = Mass coefficients of organs (pancreas, liver, kidneys) of rats; conditions: M ± m; for weight coefficient, Kidneys / weight coefficient, Liver: in %
Procedure: To calculate mass coefficients the pancreas, liver and kidneys of the animals were extracted. The organs were weighed and the mass coefficients were calculated by the following formula:
Mass coefficient=(organ weight/animal body weight)×100%

[3] = tested on: experimental rat hypercholesterolemia model; assay: Biochemical blood analysis (drug toxicity parameters) in rat hypercholesterolemia model
Procedure: as §1, §2, §3
Biochemical parameters and activity of serum enzymes (aspartate- and alanine aminotransferase, creatine phosphokinase, urea, serum amylase, total bilirubin, direct bilirubin, indirect bilirubin, serum glucose, cations K^+, Na^+).
1.0-1.84 ml blood samples for the study of biochemical parameters were taken from tail vein of rats. Blood samples were taken from the animals after 14-15-hour's fasting at same time of day (9.00-11.00). For biochemical parameters tests a Biochemical Analyzer A-25 (Biosystems, Spain) was used.
Vol. 4. pp. 1794-1798; Pearlman F C and Lee R T Y. Clin Chem 1974, 20, 447-453; Zoppi F et al, Peracino A., Fenili D., Marcovina S. and Ramella C. Giorn It Chim Cl. […] C. et al Clin Chem. 1974. Vol. 20. pp. 470-475; and in Meiattini F., et al, Clin Chem. 1978. Vol. 24. pp. 2161-2165 (total cholesterol); Warnick G R et al. Clin Chem 2001, 47, 1579-96 (HDL/LDL); Bucolo G and David H. Clin Chem. 1973.-Vol. 19. pp. 476-482; and in Fossati P. and, Prencipe L., Clin Chem. 1982. Vol. 28. pp. 2077-2080 (triglycerides); Trinder P. Ann Clin Biochem. 1969. Vol. 6. pp. 24-27).

[4] = Day 30 of treatment (Day 60 of study), dose 80 mg
[5] = Day 60 of treatment (Day 90 of study), dose 80 mg
[6] = FV + GA 80 + 90 mg, FV 80 mg, GA 90 mg
[7] = blood, Day 60 of the treatment (Day 90 of the study), FV + GA 80 + 90 mg, FV 80 mg, GA 90 mg
[8] = Day 30 of treatment (Day 60 of study), dose 40 mg
[9] = Day 60 of treatment (Day 90 of study), dose 40 mg
[10] = PV + GtA 40 + 108 mg, PV 40 mg, GtA 108 mg
[11] = group 3 of the rosuvastatin table, 20 mg
[12] = blood, Day 60 of the treatment (Day 90 of the study), PV + GtA 40 + 108 mg, PV 20 mg, GtA 108 mg
[13] = Day 30 of treatment (Day 60 of study), dose 20 mg
[14] = Day 30 of treatment, 20 mg as monotherapy
[15] = Day 60 of treatment (Day 90 of study), dose 20 mg

CC(C)n1c(/C=C/[C@@H](O)C[C@@H](O)CC(=O)O)c(-c2ccc(F)cc2)c2ccccc21 (stereo in doubt) [FV, (3R,5S,6E)-7-[3-(4-fluorophenyl)-1-(propan-2-yl)-1H-indol-2-yl]-3,5-dihydroxyhept-6-enoic acid]
HDL CHS [1, 4]: 0.61 ± 0.04 mmol/L
LDL CHS [1, 4]: 3.31 ± 0.44 mmol/L
TG [1, 4]: 1.39 ± 0.14 mmol/L
Total CHS [1, 4]: 5.0 ± 0.3 mmol/L
HDL CHS [1, 5]: 0.72 ± 0.03 mmol/L
LDL CHS [1, 5]: 3.52 ± 0.44 mmol/L
TG [1, 5]: 1.45 ± 0.14 mmol/L
Total CHS [1, 5]: 4.9 ± 0.4 mmol/L
weight coefficient, Pancreas [2, 6]: 0.37 ± 0.03^1
weight coefficient, Kidneys [2, 6]: 0.75 ± 0.03
weight coefficient, Liver [2, 6]: 4.41 ± 0.12
ALT [3, 4]: 170 U/l
AST [3, 4]: 191 U/l
Amylase [3, 4]: 637 U/l
Bilirubin direct [3, 4]: 2.6 mg/dL
Bilirubin indirect [3, 4]: 2.2 mg/dL
Bilirubin total [3, 4]: 4.0 mg/dL
CPK [3, 4]: 690 U/l
Glucose [3, 4]: 150 mg/dL
Potassium [3, 4]: 3 mM
Sodium [3, 4]: 125 mmol
Urea [3, 4]: 7.3 mmol/L
ALT [3, 7]: 148 U/l
AST [3, 7]: 200 U/l
Amylase [3, 7]: 590 U/l
Bilirubin direct [3, 7]: 1.4 mg/dL
Bilirubin indirect [3, 7]: 1.6 mg/dL
Bilirubin total [3, 7]: 4.2 mg/dL
CPK [3, 7]: 680 U/l
Glucose [3, 7]: 127 mg/dL
Potassium [3, 7]: 2.3 mM
Sodium [3, 7]: 124 mmol
Urea [3, 7]: 6.3 mmol/L

CC[C@H](C)C(=O)OC1C[C@H](O)C=C2C=C[C@H](C)C(CC[C@@H](O)C[C@@H](O)CC(=O)O)[C@H]21 (stereo in doubt) [PV, (3R,5R)-3,5-dihydroxy-7-((1R,2S,6S,8R,8aR)-6-hydroxy-2-methyl-8-{[(2S)-2-methylbutanoyl]oxy}-1,2,6,7,8,8a-hexahydronaphthalen-1-yl)-heptanoic acid]
HDL CHS [1, 8]: 0.65 ± 0.04 mmol/L
LDL CHS [1, 8]: 4.12 ± 0.35 mmol/L
TG [1, 8]: 1.33 ± 0.12 mmol/L
Total CHS [1, 8]: 4.4 ± 0.3 mmol/L
HDL CHS [1, 9]: 0.75 ± 0.04 mmol/L
LDL CHS [1, 9]: 3.70 ± 0.35 mmol/L
TG [1, 9]: 1.33 ± 0.11 mmol/L
Total CHS [1, 9]: 4.0 ± 0.3 mmol/L
weight coefficient, Pancreas [2, 10]: 0.47 ± 0.03^1
weight coefficient, Kidneys [2, 10]: 0.76 ± 0.01
weight coefficient, Liver [2, 10]: 4.47 ± 0.17
weight coefficient, Pancreas [2, 11]: 0.49 ± 0.03^1
weight coefficient, Kidneys [2, 11]: 0.78 ± 0.02
weight coefficient, Liver [2, 11]: 4.49 ± 0.15
ALT [3, 8]: 177 U/l
AST [3, 8]: 173 U/l
Amylase [3, 8]: 641 U/l
Bilirubin direct [3, 8]: 2.8 mg/dL
Bilirubin indirect [3, 8]: 2.2 mg/dL
Bilirubin total [3, 8]: 4.7 mg/dL
CPK [3, 8]: 604 U/l
Glucose [3, 8]: 150 mg/dL
Potassium [3, 8]: 3.4 mM
Sodium [3, 8]: 127 mmol
Urea [3, 8]: 7.0 mmol/L
ALT [3, 12]: 135 U/l
AST [3, 12]: 188 U/l
Amylase [3, 12]: 586 U/l
Bilirubin direct [3, 12]: 2.7 mg/dL
Bilirubin indirect [3, 12]: 1.9 mg/dL
Bilirubin total [3, 12]: 4.9 mg/dL
CPK [3, 12]: 598 U/l
Glucose [3, 12]: 160 mg/dL
Potassium [3, 12]: 4.3 mM
Sodium [3, 12]: 129 mmol
Urea [3, 12]: 6.0 mmol/L

CCC(C)(C)C(=O)O[C@H]1C[C@@H](C)C=C2C=C[C@H](C)[C@H](CC[C@@H]3C[C@@H](O)CC(=O)O3)[C@H]21 [SV, (1S,3R,7S,8S,8aR)-8-{2-[(2R,4R)-4-hydroxy-6-oxotetrahydro-2H-pyran-2-yl]ethyl}-3,7-dimethyl-1,2,3,7,8,8a-hexahydronaphthalen-1-yl 2,2-dimethylbutanoate]
HDL CHS [1, 13]: 0.82 ± 0.06 mmol/L
LDL CHS [1, 13]: 3.75 ± 0.25 mmol/L
TG [1, 13]: 1.41 ± 0.11 mmol/L
Total CHS [1, 13]: 5.2 ± 0.2 mmol/L
HDL CHS [1, 8]: 0.58 ± 0.02 mmol/L
LDL CHS [1, 8]: 3.54 ± 0.20 mmol/L
TG [1, 8]: 1.27 ± 0.04 mmol/L
Total CHS [1, 8]: 4.2 ± 0.2 mmol/L
LDL decrease as compared to the control group [1, 14]: 35%
TG decrease as compared to the control group [1, 14]: 18%
decrease of the concentration of CHS as compared to the control group [1, 14]: 26%
increase in concentration of HDL as compared to the control group [1, 14]: 86%
HDL CHS [1, 15]: 0.77 ± 0.05 mmol/L
LDL CHS [1, 15]: 3.50 ± 0.05 mmol/L
TG [1, 15]: 1.43 ± 0.11 mmol/L
Total CHS [1, 15]: 4.9 ± 0.3 mmol/L
HDL CHS [1, 9]: 0.91 ± 0.02 mmol/L
LDL CHS [1, 9]: 3.20 ± 0.1 mmol/L
TG [1, 9]: 1.09 ± 0.05 mmol/L
Total CHS [1, 9]: 3.8 ± 0.1 mmol/L
